Patent US20160090556A1, “PRODUCTS COMPRISING MALODOR REDUCTION MATERIALS” (The Procter & Gamble Company, priority 2014, published 2016)
Read-outs that look alike come from different tables or passages of the source.

Test: Liquid dish neat product liquid-air partition coefficient
Assay type: physicochemical
Settings: for Comment Code: Log of liquid dish neat product liquid-air partition coefficient: code letters K, L
[1] = class code letter within Comment Code

COc1ccccc1C=CC=O [Material 26]
Comment Code: Log of liquid dish neat product liquid-air partition coefficient: K (Log of liquid dish neat product liquid-air partition coefficient greater than or equal to −7)

CCC(=O)N(CC)c1cccc(C)c1 [Material 755]
Comment Code: Log of liquid dish neat product liquid-air partition coefficient: K (Log of liquid dish neat product liquid-air partition coefficient greater than or equal to −7)

c1ccc(Cc2ccccc2)cc1 [Material 429]
Log of liquid dish neat product liquid-air partition coefficient (Comment Code K/L) [1]: K (Log of liquid dish neat product liquid-air partition coefficient greater than or equal to −7)

CCC(=O)CCC1C(C)=CCCC1(C)C (stereo not shown) [Material 293]
Log of liquid dish neat product liquid-air partition coefficient (Comment Code K/L) [1]: K (Log of liquid dish neat product liquid-air partition coefficient greater than or equal to −7)

C=C(OC(C)=O)c1ccccc1 [Material 931]
Comment Code: Log of liquid dish neat product liquid-air partition coefficient: K (Log of liquid dish neat product liquid-air partition coefficient greater than or equal to −7)

CCCc1ccc(O)c(OC)c1 [Material 440]
Comment Code: Log of liquid dish neat product liquid-air partition coefficient: K (Log of liquid dish neat product liquid-air partition coefficient greater than or equal to −7)

CCOC(=O)OC1CCCCC1C(C)(C)C (stereo not shown) [Material 355]
Comment Code: Log of liquid dish neat product liquid-air partition coefficient: K (Log of liquid dish neat product liquid-air partition coefficient greater than or equal to −7)

N#CC=Cc1ccccc1 [Material 549]
Comment Code: Log of liquid dish neat product liquid-air partition coefficient: K (Log of liquid dish neat product liquid-air partition coefficient greater than or equal to −7)

CC(C)=C1CCC(C)(O)CC1 (stereo not shown) [Material 318]
Log of liquid dish neat product liquid-air partition coefficient (Comment Code K/L) [1]: K (Log of liquid dish neat product liquid-air partition coefficient greater than or equal to −7)

C=C(C)C1CCC(C)C(OC(C)=O)C1 (stereo not shown) [Material 444]
Log of liquid dish neat product liquid-air partition coefficient (Comment Code K/L) [1]: K (Log of liquid dish neat product liquid-air partition coefficient greater than or equal to −7)

C=C(C)[C@@H]1CCC2=CC(=O)C[C@@H](C)[C@]2(C)C1 [Material 48]
Log of liquid dish neat product liquid-air partition coefficient (Comment Code K/L) [1]: K (Log of liquid dish neat product liquid-air partition coefficient greater than or equal to −7)
Comment Code: Log of liquid dish neat product liquid-air partition coefficient: K (Log of liquid dish neat product liquid-air partition coefficient greater than or equal to −7)

C=C1[C@H]2CC[C@H](CO)[C@@]23CC[C@H](C3)C1(C)C [Material 183]
Log of liquid dish neat product liquid-air partition coefficient (Comment Code K/L) [1]: K (Log of liquid dish neat product liquid-air partition coefficient greater than or equal to −7)
Comment Code: Log of liquid dish neat product liquid-air partition coefficient: K (Log of liquid dish neat product liquid-air partition coefficient greater than or equal to −7)

COc1ccc(CCC(C)=O)cc1 [Material 803]
Log of liquid dish neat product liquid-air partition coefficient (Comment Code K/L): K (Log of liquid dish neat product liquid-air partition coefficient greater than or equal to −7)

CC(=O)C=CC12OC1(C)CCCC2(C)C (stereo not shown) [Material 636]
Log of liquid dish neat product liquid-air partition coefficient (Comment Code K/L): K (Log of liquid dish neat product liquid-air partition coefficient greater than or equal to −7)

CC(=O)[C@@]1(C)CC2=C(CCCC2(C)C)C[C@@H]1C [Material 215]
Log of liquid dish neat product liquid-air partition coefficient (Comment Code K/L) [1]: K (Log of liquid dish neat product liquid-air partition coefficient greater than or equal to −7)
Comment Code: Log of liquid dish neat product liquid-air partition coefficient: K (Log of liquid dish neat product liquid-air partition coefficient greater than or equal to −7)

CCCCCC=CC=CC(=O)OCC [Material 951]
Log of liquid dish neat product liquid-air partition coefficient (Comment Code K/L): K (Log of liquid dish neat product liquid-air partition coefficient greater than or equal to −7)

CC(C)(O)CCc1ccccc1 [Material 639]
Log of liquid dish neat product liquid-air partition coefficient (Comment Code K/L): K (Log of liquid dish neat product liquid-air partition coefficient greater than or equal to −7)

CC1=C2CCC(C)C2CC(C(C)(C)O)CC1 (stereo not shown) [Material 920]
Log of liquid dish neat product liquid-air partition coefficient (Comment Code K/L): K (Log of liquid dish neat product liquid-air partition coefficient greater than or equal to −7)

COC(C)(C)CCCC(C)C=O (stereo not shown) [Material 125]
Comment Code: Log of liquid dish neat product liquid-air partition coefficient: K (Log of liquid dish neat product liquid-air partition coefficient greater than or equal to −7)
